According to the NIST ThermoML archive (doi:10.1021/acs.jced.5b00760):

Conditions: Liquid, Closed cell (Static) method

c1ccsc1 [thiophene]
Conditions | vapor or sublimation pressure [kPa]
303.15 K | 13.29
308.15 K | 16.61
313.15 K | 20.59
318.15 K | 25.31
323.15 K | 30.87
328.15 K | 37.4
333.15 K | 44.98

Cc1ccccc1 [toluene]
Conditions | vapor or sublimation pressure [kPa]
323.16 K | 12.29
325.16 K | 13.37
327.15 K | 14.53
329.15 K | 15.77
332.15 K | 17.8
334.25 K | 19.35
337.65 K | 22.08
339.65 K | 23.83
342.3 K | 26.32
342.45 K | 26.47

O [water]
Conditions | vapor or sublimation pressure [kPa]
322.13 K | 11.12
329.07 K | 16.75
337.68 K | 24.18
341.81 K | 29.68
347.45 K | 37.91
350.9 K | 43.56
355.11 K | 51.68
358.38 K | 58.49

c1ccccc1 [benzene]
Conditions | vapor or sublimation pressure [kPa]
303.15 K | 15.63
313.15 K | 24.45
323.15 K | 36.6
333.15 K | 53.12
343.15 K | 74.82
